Test results as given in patent publication US5717110A, “UCH15 compounds” (Kyowa Hakko Kogyo Co., Ltd., priority 1995, dated 1998).
Values after ≈ are worked out from the molar mass of the structure shown.

Columns and labels:
[1] = tested on: Bacillus subtilis No. 10707; experiment: Antibacterial activity, agar dilution method (MIC); format: cell-based; conditions: medium pH 7, read-out: Minimum Inhibitory Concentration
Experimental: (§1) These antibacterial activities were determined by the agar dilution method with the use of a medium (pH 7) comprising 3 g/liter of bactotryptone (manufactured by Difco), 3 g/liter of meat extract, 1 g/liter of yeast extract, 1 g/liter of glucose and 16 g/liter of agar.

[2] = tested on: Candida albicans ATCC 10231; experiment: Antibacterial activity, agar dilution method (MIC); format: cell-based; conditions: ATCC10231, medium pH 7, read-out: Minimum Inhibitory Concentration
Experimental: as §1

[3] = tested on: Enterococcus hirae ATCC 10541; experiment: Antibacterial activity, agar dilution method (MIC); format: cell-based; conditions: ATCC10541, medium pH 7, read-out: Minimum Inhibitory Concentration
Experimental: as §1

Escherichia coli ATCC 26 = experiment: Antibacterial activity, agar dilution method (MIC); format: cell-based; conditions: ATCC26, medium pH 7, read-out: Minimum Inhibitory Concentration
Experimental: as §1

[4] = tested on: Klebsiella pneumoniae ATCC 10031; experiment: Antibacterial activity, agar dilution method (MIC); format: cell-based; conditions: ATCC10031, medium pH 7, read-out: Minimum Inhibitory Concentration
Experimental: as §1

[5] = tested on: Proteus vulgaris ATCC 6897; experiment: Antibacterial activity, agar dilution method (MIC); format: cell-based; conditions: ATCC6897, medium pH 7, read-out: Minimum Inhibitory Concentration
Experimental: as §1

[6] = tested on: Pseudomonas aeruginosa Bin H No. 1; experiment: Antibacterial activity, agar dilution method (MIC); format: cell-based; conditions: medium pH 7, read-out: Minimum Inhibitory Concentration
Experimental: as §1

[7] = tested on: Salmonella choleraesuis ATCC 9992; experiment: Antibacterial activity, agar dilution method (MIC); format: cell-based; conditions: Salmonella enterica, pH 7, read-out: Minimum Inhibitory Concentration
Experimental: as §1

[8] = tested on: Shigella sonnei ATCC 9290; experiment: Antibacterial activity, agar dilution method (MIC); format: cell-based; conditions: ATCC9290, medium pH 7, read-out: Minimum Inhibitory Concentration
Experimental: as §1

[9] = tested on: Staphylococcus aureus ATCC 6538P; experiment: Antibacterial activity, agar dilution method (MIC); format: cell-based; conditions: ATCC6538P, medium pH 7, read-out: Minimum Inhibitory Concentration
Experimental: as §1

[10] = tested on: Hela S3 cells (ATCC HTB22); experiment: Growth inhibition on Hela S3 cells; format: cell-based; conditions: Homo sapiens, 72 hours incubation, Giemsa staining, read-out: IC50 against the cell growth
Experimental: Into each well of a 96-well microtiter plate was pipetted 0.1 ml of a 3.0×10^4 cells/ml suspension of Hela S3 cells (ATCC HTB22) in DEM medium containing 10% of fetal calf serum (manufactured by Nissui, hereinafter referred to as "medium A"). This plate was incubated in a carbon dioxide gas incubator at 37° C. for 20 hours. Then, 0.1 ml of the test compound, which had been appropriately diluted with the medium A, was added to each well followed by incubation in the carbon dioxide gas incubator at 37° C. for additional 72 hours. After having removed the culture supernatant, the residue was washed with physiological saline once and treated with 0.1 ml of methanol for 10 minutes to thereby fix the cells. Next, the cells were stained with 0.1 ml of Giemsa's staining solution [stock solution for Giemsa's staining Merck Art 9204 (manufactured by Merck): physiological saline=1:10] for 5 minutes. After having removed the staining solution, the residue was washed with 0.2 ml of water once. Then, the pigment was extracted with 0.2 ml of 0.1N hydrochloric acid, and the absorbance was measured at 620 nm by the use of a microplate reader. From the result of the measurement, the increased amount of the grown cells was determined. […]

sarcoma 180 tumor = experiment: Antitumor activity on sarcoma 180 tumor; format: in vivo, male ddY mice; conditions: for Mean Tumor Volume: once into tail vein on day 1, measured on 7th day after implantation, ddY mice; for Antitumor Activity (T/C): once into tail vein, day 7, mean tumor volume test/control
Experimental: Male ddY mice were used herein, which were grouped into plural groups, each group being comprised of 5 mice. 5×10^6 sarcoma 180 tumor cells were implanted into the subcutaneous tissue in the axillary region of each mouse. On the 1st day after the implantation, a solution of UCH15B dissolved in physiological saline was injected once into the tail vein of each mouse. On the 7th day after the implantation, the mean tumor volume (mm^3) in each mouse was measured. […] Said antitumor activity was calculated according to the following equation.
=[mean tumor volume (mm^3) in mice in test group]/[mean tumor volume (mm^3) in mice in control group (to which was administered physiological saline only)]

[11] = tested on: human ovarian cancer strain A2780 tumor; experiment: Antitumor activity on human ovarian cancer strain A2780; format: in vivo; conditions: 0.38 mg/kg, once into tail vein; nude mice (BALB/C-nu/nu); 14 days after injection; [V/V0]/[C/C0]
Experimental: Nude mice (BALB/C-nu/nu) were used herein, which were grouped into plural groups, each group being comprised of 5 mice. A human ovarian cancer strain A2780 tumor (a piece of 8mm^3) was implanted into the subcutaneous tissue in the abdominal region of each mouse. After the implantation, when the tumor volume in each tumor-carrying mouse reached between 50 and 300 mm^3, a solution of UCH15B in physiological saline was injected once into the tail vein of each mouse (in the test group). Just before the injection of said UCH15B solution, the volume of the tumor (V0) in each mouse was measured. 14 days after the injection thereof, the volume of the tumor (V) therein was measured. Into each mouse in the control group, only physiological saline was injected. Just before the injection of physiological saline, the volume of the tumor (C0) in each mouse was measured. 14 days after the injection thereof, the volume of the tumor (C) therein was measured. The antitumor activity of the test compound, UCH15B was obtained according to the following equation.
Antitumor Activity=[V/V0]/[C/C0 ]
V: tumor volume (mm^3) in test group after the test
V0 : tumor volume (mm^3) in test group before the test
C: tumor volume (mm^3) in control group after the test
C0 : tumor volume (mm^3) in control group before the test

Row | Compound | MIC [1] [µg/mL] | MIC [2] [µg/mL] | MIC [3] [µg/mL] | MIC (Escherichia coli ATCC 26) [µg/mL] | MIC [4] [µg/mL] | MIC [5] [µg/mL] | MIC [6] [µg/mL] | MIC [7] [µg/mL] | MIC [8] [µg/mL] | MIC [9] [µg/mL] | IC50 [10] [nM] | Mean Tumor Volume (sarcoma 180 tumor; 0.094 mg/kg) [mm^3] | Antitumor Activity (T/C) (sarcoma 180 tumor; 0.094 mg/kg) | Mean Tumor Volume (sarcoma 180 tumor; 0.19 mg/kg) [mm^3] | Antitumor Activity (T/C) (sarcoma 180 tumor; 0.19 mg/kg) | Mean Tumor Volume (sarcoma 180 tumor; 0.38 mg/kg) [mm^3] | Antitumor Activity (T/C) (sarcoma 180 tumor; 0.38 mg/kg) | Mean Tumor Volume (sarcoma 180 tumor; 0.75 mg/kg) [mm^3] | Antitumor Activity (T/C) (sarcoma 180 tumor; 0.75 mg/kg) | Antitumor Activity (T/C) [11]
1 | N#CC(CC(=O)NC(C=O)C/C=C/CN)NC(=O)c1cc(NC(=O)c2cc(NC(=O)CNC(N)=NO)c[nH]2)c[nH]1 (stereo not shown) [UCH15B] | 0.33 (≈ 0.594 µM) | > 41.7 | 10.4 (≈ 18.7 µM) | 0.08 (≈ 0.144 µM) | 0.04 (≈ 0.072 µM) | 0.33 (≈ 0.594 µM) | > 50 | 0.33 (≈ 0.594 µM) | 0.33 (≈ 0.594 µM) | 5.2 (≈ 9.36 µM) | 1000 | 1528 | 0.65 | 1405 | 0.60 | 1035 | 0.44 | 522 | 0.22 | 0.27
2 | N#CC(CC(=O)NC(C=O)C/C=C/CN)NC(=O)c1cc(NC(=O)c2cc(NC(=O)CNC(=N)N)c[nH]2)c[nH]1 (stereo not shown) [UCH15A] | 0.08 (≈ 0.148 µM) | 10.4 (≈ 19.3 µM) | 2.6 (≈ 4.82 µM) | 0.16 (≈ 0.297 µM) | 0.02 (≈ 0.0371 µM) | 0.16 (≈ 0.297 µM) | > 50 | 0.16 (≈ 0.297 µM) | 0.16 (≈ 0.297 µM) | 2.6 (≈ 4.82 µM) | 1200 |  |  |  |  |  |  |  |  | 
